{"source": "patent US7202233B2", "about": "“Alprazolam inclusion complexes and pharmaceutical compositions thereof” (Farmarc Nederland BV, priority 2000, dated 2007)", "origin": "cited, not measured here", "key": {"[1]": {"conditions": "above pH 6; FIG. 1 (Cho et al. 1983)"}, "[2]": {"conditions": "sublingual use of commercially available oral tablet dosage forms"}, "[3]": {"conditions": "tablet formulation, conventional orogastric administration"}, "[4]": {"conditions": "20% solution of 2-hydroxypropyl-beta-cyclodextrin"}}, "data": [{"smiles": "Cc1nnc2n1-c1ccc(Cl)cc1C(c1ccccc1)=NC2", "note": "[alprazolam, 8-chloro-1-methyl-6-phenyl-4H-[1,2,4]triazolo[4,3a][1,4]benzodiazepine]", "values": [{"measurement": "presence of ring-open form as a function of pH", "setting": "[1]", "result": "no ring-open alprazolam above pH 6"}, {"measurement": "speed of onset, sublingual versus conventional orogastric administration", "setting": "[2]", "result": "no significant benefit"}, {"measurement": "time of maximum plasma levels post-dose", "setting": "[3]", "result": "0.7 to 1.8", "unit": "h"}, {"measurement": "solubility enhancement", "setting": "[4]", "result": 16, "unit": "fold"}]}]}
